Experimental findings from patent US9120749B2, “Quinoline derivatives and MELK inhibitors containing the same” (ONCOTHERAPY SCIENCE, INC., priority 2010, dated 2015) are described below.

In one assay the test system is 22Rv1 cells. Briefly: Cell-based assay: anti-proliferative activity, Cell Counting Kit-8, 72 hours (22Rv1). A general note: Tetrazolium dyes change colour on reduction, which living cells bring about.
The test system of the next assay is T47D cells. Description: Cell-based assay: anti-proliferative activity, Cell Counting Kit-8, 72 hours (T47D). The procedure, abridged:
(§1)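 IC50 values come from CCK-8 growth measurements taken 72 hours post-treatment of plated cells with test compounds. Expression of MELK across the panel was assessed through immunoblot of unfractionated lysates.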

For the next assay, the system named is A549 cells. Description: Cell-based assay: anti-proliferative activity, Cell Counting Kit-8, 72 hours (A549). To be noted: 72 hours. In short, it runs like this:
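A549 cells seeded in 96-well plates and exposed to candidate inhibitors for 72 hours. Growth measured with Cell Counting Kit-8; IC50 values calculated from the dose response.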

Another assay has as its system DU4475 cells. Briefly: Cell-based assay: anti-proliferative activity, Cell Counting Kit-8, 72 hours (DU4475).
The target of another assay is MELK (Homo sapiens, UniProt Q14680). Description: Kinase assay: MELK activity, phosphorylation of FITC-labeled histone H3 peptide measured by IMAP fluorescence polarization. Format: biochemical. To be noted: read-out: IC50 (μM) (kinase assay). In short, it runs like this: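 Substrate is FITC-labeled histone H3 peptide. Compounds come from a 12.5 mM DMSO stock, diluted so assay DMSO is 1%. The stop step adds threefold-volume progressive binding solution, followed by 0.5 h at room temperature and an FP read.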
(In general: Fluorescence polarisation rises when a labelled molecule tumbles more slowly, as on binding a larger partner.)

The next assay concerns HT-1197 cells. Description: Cell-based assay: anti-proliferative activity, Cell Counting Kit-8, 72 hours (HT-1197, negative control without MELK expression). To be noted: Homo sapiens, HT1197, 72 h, HT1197 cells (negative control, no MELK expression), 72 hours. In short, it runs like this: as §1

Counter-ions that a name gives are not always drawn. Like-named read-outs stand apart in the source and are kept apart here.

In general, IC50 refers to the concentration that inhibits the measured activity by half.

Chain of MELK (Q14680 whole entry, looked up): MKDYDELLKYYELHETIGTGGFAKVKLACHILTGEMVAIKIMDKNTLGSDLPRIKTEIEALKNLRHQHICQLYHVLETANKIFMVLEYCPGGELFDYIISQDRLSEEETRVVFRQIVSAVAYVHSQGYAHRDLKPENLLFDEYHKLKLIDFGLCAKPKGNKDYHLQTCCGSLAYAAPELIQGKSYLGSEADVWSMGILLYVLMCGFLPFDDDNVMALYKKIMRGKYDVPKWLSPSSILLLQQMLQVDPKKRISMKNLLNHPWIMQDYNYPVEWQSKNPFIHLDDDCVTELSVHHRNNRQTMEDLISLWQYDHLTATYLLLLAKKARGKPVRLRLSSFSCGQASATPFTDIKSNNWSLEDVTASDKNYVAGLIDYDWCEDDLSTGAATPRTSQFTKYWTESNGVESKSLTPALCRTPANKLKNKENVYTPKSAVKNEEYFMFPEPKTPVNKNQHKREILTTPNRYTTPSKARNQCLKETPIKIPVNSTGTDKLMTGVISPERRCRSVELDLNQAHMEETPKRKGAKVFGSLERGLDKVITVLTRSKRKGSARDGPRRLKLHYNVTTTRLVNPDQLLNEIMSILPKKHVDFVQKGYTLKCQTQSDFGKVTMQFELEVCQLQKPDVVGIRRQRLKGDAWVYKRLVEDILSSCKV

For the molecule `CC(=O)c1cnc2ccc(-c3cc(Cl)c(O)c(Cl)c3)cc2c1Nc1cnn(C2CCN(C)CC2)c1` [Example 836, 1-(6-(3,5-dichloro-4-hydroxyphenyl)-4-((1-(1-methylpiperidin-4-yl)-1H-pyrazol-4-yl)amino)quinolin-3-yl)ethanone dihydrochloride], the IC50 with 22Rv1 cells (Homo sapiens, 22Rv1, 72 h) turned out to be 0.27 µM; in the assay on T47D cells (Homo sapiens, T47D, 72 h), 0.35 µM; in the assay on A549 cells (Homo sapiens, A549, 72 h) it was 0.45 µM; in the assay with DU4475 cells (Homo sapiens, DU-4475, 72 h), 0.082 µM; on MELK (MELK kinase assay, IMAP fluorescence polarization, 50 micro-M ATP), 0.0014 µM.

As to `CC(=O)c1cnc2ccc(-c3cc(Cl)c(O)c(Cl)c3)cc2c1N[C@H]1CC[C@H](CN2CCC[C@@H]2CO)CC1` [Example 812], the IC50 was 0.2 µM in the assay with 22Rv1 cells (Homo sapiens, 22Rv1, 72 h); 0.15 µM in the assay on T47D cells (Homo sapiens, T47D, 72 h); 0.18 µM in the assay on A549 cells (Homo sapiens, A549, 72 h); 0.086 µM in the assay with DU4475 cells (Homo sapiens, DU-4475, 72 h); 0.0017 µM at MELK.

Take `CC(=O)c1cnc2ccc(-c3cc(Cl)c(O)c(Cl)c3)cc2c1Nc1cccc(CCN2CCCC2)c1` [Example 802, 1-(6-(3,5-dichloro-4-hydroxyphenyl)-4-(3-(2-(pyrrolidin-1-yl)ethyl)phenylamino)quinolin-3-yl)ethanone hydrochloride]: the IC50 was 0.16 µM in the assay on 22Rv1 cells (hydrochloride); 0.45 µM in the assay on T47D cells (72 hours, hydrochloride); 0.08 µM in the assay on A549 cells (hydrochloride); 0.072 µM in the assay on DU4475 cells (hydrochloride); 0.0021 µM on MELK (hydrochloride).

As to `CC(=O)c1cnc2ccc(-c3cc(Cl)c(O)c(Cl)c3)cc2c1N[C@H]1CC[C@H](CN2CCC[C@H]2CO)CC1` [Example 792, 1-(6-(3,5-dichloro-4-hydroxyphenyl)-4-((1S,4r)-4-(((S)-2-(hydroxymethyl)pyrrolidin-1-yl)methyl)cyclohexylamino)quinolin-3-yl)ethanone], the IC50 with 22Rv1 cells (Homo sapiens, 22Rv1, 72 h) was found to be 0.12 µM; in the assay on T47D cells (Homo sapiens, T47D, 72 h), 0.079 µM; with A549 cells (Homo sapiens, A549, 72 h), 0.1 µM; in the assay on DU4475 cells (Homo sapiens, DU-4475, 72 h), 0.073 µM; on MELK, 0.0011 µM.

Regarding `CC(=O)c1cnc2ccc(-c3cc(Cl)c(O)c(Cl)c3)cc2c1Nc1cccc(CCN2CCCC2)c1` [Example 801, 1-{6-(3,5-Dichloro-4-hydroxyphenyl)-4-[3-(2-(pyrrolidin-1-yl)ethyl)phenylamino]quinolin-3-yl}ethanone], the IC50 amounted to 0.15 µM in the assay on 22Rv1 cells (Homo sapiens, 22Rv1, 72 h); 0.37 µM in the assay on T47D cells (Homo sapiens, T47D, 72 h); 0.081 µM with A549 cells (Homo sapiens, A549, 72 h); 0.06 µM in the assay on DU4475 cells (Homo sapiens, DU-4475, 72 h); 0.004 µM on MELK.

Regarding `O=C(c1cnc2ccc(-c3cc(F)c(O)c(Cl)c3)cc2c1Nc1cccc(CCN2CCCC2)c1)C1CC1` [Example 800, (6-(3-chloro-5-fluoro-4-hydroxyphenyl)-4-(3-(2-(pyrrolidin-1-yl)ethyl)phenylamino)quinolin-3-yl)(cyclopropyl)methanone hydrochloride], the IC50 in the assay on 22Rv1 cells (hydrochloride) came out at 0.17 µM; in the assay on T47D cells (72 hours, hydrochloride), 0.26 µM; in the assay with A549 cells (hydrochloride), 0.041 µM; in the assay on DU4475 cells (hydrochloride), 0.046 µM; at MELK (hydrochloride) it was 0.012 µM.

As for `COc1cc(-c2ccc3ncc(C(C)=O)c(N[C@@H]4CCC[C@@H](CN(C)C)C4)c3c2)cc(Cl)c1O` [Example 752, 1-(6-(3-chloro-4-hydroxy-5-methoxyphenyl)-4-((1R,3R)-3-((dimethylamino)methyl)cyclohexylamino)quinolin-3-yl)ethanone], the IC50 with HT-1197 cells came to 3.4 µM; with T47D cells (Homo sapiens, T47D, 72 h) it was 0.18 µM; in the assay on A549 cells (Homo sapiens, A549, 72 h), 0.2 µM; in the assay with DU4475 cells (Homo sapiens, DU-4475, 72 h), 0.17 µM; at MELK, 0.001 µM.

`CCC(=O)c1cnc2ccc(-c3cc(Cl)c(O)c(OC)c3)cc2c1N[C@H]1CC[C@H](N(C)C)CC1` [Example 755]: the IC50 in the assay on HT-1197 cells was 3.4 µM; in the assay on T47D cells (Homo sapiens, T47D, 72 h), 0.35 µM; in the assay on A549 cells (Homo sapiens, A549, 72 h), 0.34 µM; in the assay with DU4475 cells (Homo sapiens, DU-4475, 72 h), 0.21 µM; on MELK, 0.0018 µM.

As for `O=C(c1cnc2ccc(-c3cc(Cl)c(O)c(Cl)c3)cc2c1Nc1cccc(CCN2CCCC2)c1)C1CC1` [Example 797, Cyclopropyl{6-(3,5-dichloro-4-hydroxyphenyl)-4-[3-(2-(pyrrolidin-1-yl)ethyl)phenylamino]quinolin-3-yl}methanone], the IC50 in the assay on 22Rv1 cells (Homo sapiens, 22Rv1, 72 h) turned out to be 0.12 µM; in the assay on T47D cells (Homo sapiens, T47D, 72 h) it was 0.31 µM; in the assay with A549 cells (Homo sapiens, A549, 72 h), 0.022 µM; in the assay with DU4475 cells (Homo sapiens, DU-4475, 72 h), 0.03 µM; at MELK it was 0.0056 µM.

As for `CCC(=O)c1cnc2ccc(-c3cc(Cl)c(O)c(Cl)c3)cc2c1N[C@H]1CC[C@H](N(C)C)CC1` [Example 754, 1-(6-(3,5-dichloro-4-hydroxyphenyl)-4-((trans-4-(dimethylamino)cyclohexyl)amino)quinolin-3-yl)propan-1-one], the IC50 in the assay on HT-1197 cells amounted to 10 µM; with T47D cells (Homo sapiens, T47D, 72 h) it was 0.19 µM; in the assay with A549 cells (Homo sapiens, A549, 72 h), 0.22 µM; with DU4475 cells (Homo sapiens, DU-4475, 72 h), 0.072 µM; at MELK, 0.02 µM.

`CC(=O)c1cnc2ccc(-c3cc(Cl)c(O)c(Cl)c3)cc2c1N[C@@H]1CCC[C@@H](CN(C)C)C1` [Example 750, 1-(6-(3,5-dichloro-4-hydroxyphenyl)-4-((1R,3R)-3-((dimethylamino)methyl)cyclohexylamino)quinolin-3-yl)ethanone]: the IC50 with HT-1197 cells was determined as 1.7 µM; with T47D cells (Homo sapiens, T47D, 72 h), 0.2 µM; in the assay on A549 cells (Homo sapiens, A549, 72 h), 0.39 µM; in the assay with DU4475 cells (Homo sapiens, DU-4475, 72 h), 0.19 µM; at MELK, 0.0023 µM.

Take `CC(=O)c1cnc2ccc(-c3cc(F)c(O)c(Cl)c3)cc2c1N[C@@H]1CCC[C@@H](CN(C)C)C1` [Example 751, 1-(6-(3-chloro-5-fluoro-4-hydroxyphenyl)-4-((1R,3R)-3-((dimethylamino)methyl)cyclohexylamino)quinolin-3-yl)ethanone]: the IC50 is 1.7 µM in the assay with HT-1197 cells; 0.32 µM in the assay on T47D cells (Homo sapiens, T47D, 72 h); 0.58 µM in the assay on A549 cells (Homo sapiens, A549, 72 h); 0.29 µM in the assay with DU4475 cells (Homo sapiens, DU-4475, 72 h); 0.0067 µM at MELK.

As for `CCC(=O)c1cnc2ccc(-c3cc(F)c(O)c(Cl)c3)cc2c1Nc1ccc(N2CCC(N)C2)nc1` (centres unmarked) [Example 760, 1-(4-(6-(3-aminopyrrolidin-1-yl)pyridin-3-ylamino)-6-(3-chloro-5-fluoro-4-hydroxyphenyl)quinolin-3-yl)propan-1-one], the IC50 in the assay on HT-1197 cells stood at 0.77 µM; with T47D cells (Homo sapiens, T47D, 72 h), 0.0087 µM; in the assay with A549 cells (Homo sapiens, A549, 72 h), 0.031 µM; in the assay with DU4475 cells (Homo sapiens, DU-4475, 72 h), 0.016 µM; on MELK, 0.0034 µM.

As for `CCC(=O)c1cnc2ccc(-c3cc(F)c(O)c(Cl)c3)cc2c1N[C@H]1CC[C@H](N(C)C)CC1` [Example 757, 1-(6-(3-chloro-5-fluoro-4-hydroxyphenyl)-4-((trans-4-(dimethylamino)cyclohexyl)amino)quinolin-3-yl)propan-1-one], the IC50 in the assay with HT-1197 cells was 0.76 µM; in the assay with T47D cells (Homo sapiens, T47D, 72 h) it was 0.064 µM; in the assay on A549 cells (Homo sapiens, A549, 72 h), 0.15 µM; in the assay with DU4475 cells (Homo sapiens, DU-4475, 72 h), 0.069 µM; at MELK it was 0.0062 µM.

`CC(=O)c1cnc2ccc(-c3cc(F)c(O)c(Cl)c3)cc2c1Nc1cccc(CCN2CCCC2)c1` [Example 803, 1-(6-(3-chloro-5-fluoro-4-hydroxyphenyl)-4-(3-(2-(pyrrolidin-1-yl)ethyl)phenylamino)quinolin-3-yl)ethanone]: the IC50 in the assay with 22Rv1 cells (Homo sapiens, 22Rv1, 72 h) amounted to 0.44 µM; in the assay with T47D cells (Homo sapiens, T47D, 72 h), 0.65 µM; in the assay with A549 cells (Homo sapiens, A549, 72 h) it was 0.17 µM; in the assay with DU4475 cells (Homo sapiens, DU-4475, 72 h) it was 0.12 µM; at MELK, 0.016 µM.

For `CC(=O)c1cnc2ccc(-c3cc(F)c(O)c(Cl)c3)cc2c1Nc1cccc(CCN(C)C)c1` [Example 759, 1-(6-(3-chloro-5-fluoro-4-hydroxyphenyl)-4-(3-(2-(dimethylamino)ethyl)phenylamino)quinolin-3-yl)ethanone], the IC50 with HT-1197 cells amounted to 10 µM; in the assay on T47D cells (Homo sapiens, T47D, 72 h) it was 0.67 µM; in the assay on A549 cells (Homo sapiens, A549, 72 h), 0.42 µM; with DU4475 cells (Homo sapiens, DU-4475, 72 h), 0.2 µM; at MELK, 0.013 µM.
